Results reported in ChEMBL document CHEMBL5042488, “Synthesis, biological, and structural explorations of a series of μ-opioid receptor (MOR) agonists with high G protein signaling bias” (Eur J Med Chem, 2022).

Experiments:
Mu-type opioid receptor [1] = target: T1, Mu-type opioid receptor (Homo sapiens, UniProt P35372); assay: Agonist activity at mu opioid receptor (unknown origin) assessed as maximal beta arrestin-2 recruitment incubated for 3 days by PathHunter assay relative to DAMGO; type: functional; conditions: time 3.0 day
Mu-type opioid receptor [2] = target: T1, Mu-type opioid receptor; assay: Agonist activity at mu opioid receptor (unknown origin) assessed as increase in cAMP level incubated for 40 mins by spectrophotometry; type: functional
Mu-type opioid receptor [3] = target: T1, Mu-type opioid receptor; assay: Agonist activity at mu opioid receptor (unknown origin) assessed as beta arrestin-2 recruitment incubated for 3 days by PathHunter assay; type: functional
Mu-type opioid receptor [4] = target: T1, Mu-type opioid receptor; assay: Agonist activity at mu opioid receptor (unknown origin) assessed as maximal cAMP level incubated for 40 mins by spectrophotometry relative to DAMGO; type: functional; conditions: filed as agonist
[5] = Metabolic stability in human liver microsomes assessed as intrinsic clearance preincubated for 10 mins followed by NADPH addition and measured after 60 mins by LC-MS/MS analysis; type: ADME, Microsome; conditions: time 70 min, read-out: CLH

T1 sequence (P35372 whole entry): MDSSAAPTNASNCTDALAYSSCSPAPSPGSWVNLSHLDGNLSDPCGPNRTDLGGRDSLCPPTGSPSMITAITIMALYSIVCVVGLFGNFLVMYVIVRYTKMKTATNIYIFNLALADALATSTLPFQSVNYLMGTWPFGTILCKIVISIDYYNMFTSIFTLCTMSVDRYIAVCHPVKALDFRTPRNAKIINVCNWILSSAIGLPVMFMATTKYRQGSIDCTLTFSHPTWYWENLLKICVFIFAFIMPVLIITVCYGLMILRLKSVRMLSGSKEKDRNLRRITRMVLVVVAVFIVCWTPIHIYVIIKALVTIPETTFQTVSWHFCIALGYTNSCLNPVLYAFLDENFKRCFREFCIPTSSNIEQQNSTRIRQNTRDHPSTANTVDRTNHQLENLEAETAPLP

| SMILES | Emax (Mu-type opioid receptor [1]; filed as agonist) [%] | EC50 (Mu-type opioid receptor [2]) [nM] | EC50 (Mu-type opioid receptor [3]) [nM] | Emax (Mu-type opioid receptor [4]) [%] | Emax (Mu-type opioid receptor [1]) [%] | CLint scaled [5] [mL/min/kg] |
| --- | --- | --- | --- | --- | --- | --- |
| FC1(F)CCc2c(csc2CNCC[C@@]2(c3ccccn3)CCOC3(CCOC3)C2)C1 (stereo partly specified) | 43.1 | 0.5 | 69 | 101 | – | – |
| c1ccc([C@]2(CCNCc3scc4c3COC4)CCOC3(CCCC3)C2)nc1 | – | 2 | 27 | 90.5 | 4.4 | 230 |
| c1ccc([C@]2(CCNCc3ccc4ccccc4c3)CCOC3(CCOC3)C2)nc1 (stereo partly specified) | – | 174 | > 30000 | 124 | 1.1 | – |
| Cc1cc(C)cc(CNCC[C@@]2(c3ccccn3)CCOC3(CCOC3)C2)c1 (stereo partly specified) | – | 11.6 | > 30000 | 96.6 | 4.6 | – |
| Cc1ccsc1CNCC[C@@]1(c2ccc(F)cc2)CCOC2(CCOC2)C1 (stereo partly specified) | – | 4.1 | > 30000 | 61.2 | 2.9 | – |
| c1ccc([C@]2(CCNCc3scc4c3COC4)CCOC3(CCOC3)C2)nc1 (stereo partly specified) | – | 14.1 | > 30000 | 90.4 | – | – |
| FC1(F)CCc2csc(CNCC[C@@]3(c4ccccn4)CCOC4(CCCC4)C3)c2C1 | 54.3 | 1.8 | 11 | 92.5 | – | 1610 |
| COc1ccsc1CNCC[C@@]1(c2ccccn2)CCO[C@]2(CCOC2)C1 | – | 20 | > 30000 | 63.7 | 1.2 | 9.3 |
| FC1(F)Cc2csc(CNCC[C@@]3(c4ccccn4)CCOC4(CCCC4)C3)c2C1 | – | 0.1 | 10 | 96.9 | 9.8 | – |
| Fc1ccc([C@]2(CCNCc3scc4c3CCC4)CCOC3(CCOC3)C2)cc1 (stereo partly specified) | – | 0.07 | > 30000 | – | – | 157 |
| Fc1ccc(CNCC[C@@]2(c3ccccn3)CCOC3(CCOC3)C2)cc1Cl (stereo partly specified) | – | 26.5 | > 30000 | 92.3 | – | – |
| Fc1ccc([C@]2(CCNCc3scc4c3CCC4)CCOC3(CCOCC3)C2)nc1 | 125 | 178 | 725 | 125 | – | – |
| c1ccc([C@]2(CCNCC3CCCCC3)CCOC3(CCOC3)C2)nc1 (stereo partly specified) | – | 61.6 | > 30000 | 59.2 | – | – |
